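How tested: cells in 96-well plates exposed to compound for 48 hours at five concentrations. At the GI50, growth is halved. TGI is the concentration that stops growth completely.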
What was measured:
Experiment in all cases: growth of human tumour cells (NCI), 48 h; in the data active = GI50 below about 0.43 µM; inactive = the rest
U251 CNS = tested on: U251 CNS
OVCAR-5 ovarian = tested on: OVCAR-5 ovarian
K-562 leukemia = tested on: K-562 leukemia
PC-3 prostate = tested on: PC-3 prostate
SK-MEL-2 melanoma = tested on: SK-MEL-2 melanoma
NCI-H522 lung = tested on: NCI-H522 lung
BT-549 breast = tested on: BT-549 breast
UACC-257 melanoma = tested on: UACC-257 melanoma
MDA-MB-231 breast = tested on: MDA-MB-231 breast
A549 NSCLC = tested on: A549 NSCLC
786-0 renal = tested on: 786-0 renal
SK-OV-3 ovarian = tested on: SK-OV-3 ovarian
NCI-H460 lung = tested on: NCI-H460 lung
UO-31 renal = tested on: UO-31 renal
A498 renal = tested on: A498 renal
SR leukemia = tested on: SR leukemia
TK-10 renal = tested on: TK-10 renal
HCC-2998 colon = tested on: HCC-2998 colon
HCT-15 colon = tested on: HCT-15 colon
ACHN renal = tested on: ACHN renal
COLO 205 colon = tested on: COLO 205 colon
HT29 colon = tested on: HT29 colon
OVCAR-4 ovarian = tested on: OVCAR-4 ovarian
UACC-62 melanoma = tested on: UACC-62 melanoma
NCI-H23 lung = tested on: NCI-H23 lung
NCI/ADR-RES ovarian = tested on: NCI/ADR-RES ovarian
EKVX NSCLC = tested on: EKVX NSCLC
HL-60(TB) leukemia = tested on: HL-60(TB) leukemia
NCI-H226 lung = tested on: NCI-H226 lung
IGROV1 ovarian = tested on: IGROV1 ovarian
M14 melanoma = tested on: M14 melanoma
OVCAR-3 ovarian = tested on: OVCAR-3 ovarian
HOP-62 NSCLC = tested on: HOP-62 NSCLC
SW-620 colon = tested on: SW-620 colon
SK-MEL-5 melanoma = tested on: SK-MEL-5 melanoma
HCT-116 colon = tested on: HCT-116 colon
SNB-19 CNS = tested on: SNB-19 CNS
MDA-MB-435 = tested on: MDA-MB-435
SNB-75 CNS = tested on: SNB-75 CNS
SN12C renal = tested on: SN12C renal
CAKI-1 renal = tested on: CAKI-1 renal
SK-MEL-28 melanoma = tested on: SK-MEL-28 melanoma
MCF7 breast = tested on: MCF7 breast
SF-539 CNS = tested on: SF-539 CNS
T-47D breast = tested on: T-47D breast
DU-145 prostate = tested on: DU-145 prostate
KM12 colon = tested on: KM12 colon
CCRF-CEM leukemia = tested on: CCRF-CEM leukemia
HS 578T breast = tested on: HS 578T breast
HOP-92 NSCLC = tested on: HOP-92 NSCLC
RXF 393 renal = tested on: RXF 393 renal
MOLT-4 leukemia = tested on: MOLT-4 leukemia
OVCAR-8 ovarian = tested on: OVCAR-8 ovarian
SF-295 CNS = tested on: SF-295 CNS
RPMI-8226 leukemia = tested on: RPMI-8226 leukemia
SF-268 CNS = tested on: SF-268 CNS
LOX IMVI melanoma = tested on: LOX IMVI melanoma
MALME-3M melanoma = tested on: MALME-3M melanoma

CCCCCCCCCCCCc1ccsc1-c1ccc(-c2ccc(-c3sc(-c4cc(CCCCCCCCCCCC)c(-c5ccc(-c6ccc(-c7sccc7CCCCCCCCCCCC)s6)s5)s4)cc3CCCCCCCCCCCC)s2)s1
> 100 µM: TGI (U251 CNS) | TGI (OVCAR-5 ovarian) | TGI (K-562 leukemia) | TGI (PC-3 prostate) | TGI (SK-MEL-2 melanoma) | TGI (NCI-H522 lung) | TGI (BT-549 breast) | TGI (UACC-257 melanoma) | TGI (MDA-MB-231 breast) | TGI (A549 NSCLC) | TGI (786-0 renal) | TGI (SK-OV-3 ovarian) | TGI (NCI-H460 lung) | TGI (UO-31 renal) | TGI (A498 renal) | TGI (TK-10 renal) | TGI (HCC-2998 colon) | TGI (HCT-15 colon) | TGI (ACHN renal) | TGI (COLO 205 colon) | TGI (HT29 colon) | TGI (OVCAR-4 ovarian) | TGI (UACC-62 melanoma) | TGI (NCI-H23 lung) | TGI (NCI/ADR-RES ovarian) | TGI (EKVX NSCLC) | TGI (HL-60(TB) leukemia) | TGI (NCI-H226 lung) | TGI (IGROV1 ovarian) | TGI (M14 melanoma) | TGI (OVCAR-3 ovarian) | TGI (HOP-62 NSCLC) | TGI (SW-620 colon) | TGI (SK-MEL-5 melanoma) | TGI (HCT-116 colon) | TGI (SNB-19 CNS) | TGI (MDA-MB-435) | TGI (SNB-75 CNS) | TGI (SN12C renal) | TGI (CAKI-1 renal) | TGI (SK-MEL-28 melanoma) | TGI (MCF7 breast) | TGI (SF-539 CNS) | TGI (T-47D breast) | TGI (DU-145 prostate) | TGI (KM12 colon) | TGI (CCRF-CEM leukemia) | TGI (HS 578T breast) | TGI (HOP-92 NSCLC) | TGI (RXF 393 renal) | TGI (MOLT-4 leukemia) | TGI (OVCAR-8 ovarian) | TGI (SF-295 CNS) | TGI (RPMI-8226 leukemia) | TGI (SF-268 CNS)
75.2 µM: TGI (SR leukemia)

Clc1ccc2c(N3CCN(c4ccnc(NC5CCCCC5)n4)CC3)ccnc2c1
12.6 µM: TGI (OVCAR-8 ovarian)
4.69 µM: TGI (RPMI-8226 leukemia)
6.66 µM: TGI (NCI/ADR-RES ovarian)
4.99 µM: TGI (HOP-92 NSCLC)
3.3 µM: TGI (PC-3 prostate)
3.72 µM: TGI (SW-620 colon)
3.14 µM: TGI (786-0 renal) | TGI (SK-MEL-5 melanoma)
3 µM: TGI (U251 CNS)
5.5 µM: TGI (T-47D breast)
3.54 µM: TGI (RXF 393 renal)
4.06 µM: TGI (HT29 colon)
7.33 µM: TGI (SNB-19 CNS)
5.73 µM: TGI (HOP-62 NSCLC)
3.79 µM: TGI (SF-295 CNS)
9.71 µM: TGI (NCI-H23 lung)
10.8 µM: TGI (A549 NSCLC)
14 µM: TGI (SK-OV-3 ovarian)
3.49 µM: TGI (OVCAR-3 ovarian)
6.74 µM: TGI (HCT-15 colon) | TGI (SNB-75 CNS)
4.11 µM: TGI (UACC-257 melanoma)
3.26 µM: TGI (UACC-62 melanoma)
3.31 µM: TGI (BT-549 breast)
3.6 µM: TGI (SN12C renal)
5.16 µM: TGI (TK-10 renal)
4.49 µM: TGI (KM12 colon)
2.8 µM: TGI (HCT-116 colon)
5.04 µM: TGI (IGROV1 ovarian)
inactive: GI50 (U251 CNS) 1.62 µM | GI50 (K-562 leukemia) 2.19 µM | GI50 (PC-3 prostate) 1.56 µM | GI50 (NCI-H522 lung) 1.97 µM | GI50 (BT-549 breast) 1.75 µM | GI50 (UACC-257 melanoma) 1.95 µM | GI50 (MDA-MB-231 breast) 2.01 µM | GI50 (LOX IMVI melanoma) 1.92 µM | GI50 (A549 NSCLC) 3.17 µM | GI50 (786-0 renal) 1.69 µM | GI50 (SK-OV-3 ovarian) 4.2 µM | GI50 (NCI-H460 lung) 2.05 µM | GI50 (UO-31 renal) 1.31 µM | GI50 (A498 renal) 1.79 µM | GI50 (SR leukemia) 1.83 µM | GI50 (TK-10 renal) 2.29 µM | GI50 (HCC-2998 colon) 1.93 µM | GI50 (MALME-3M melanoma) 1.98 µM | GI50 (HCT-15 colon) 2.26 µM | GI50 (COLO 205 colon) 1.77 µM | GI50 (HT29 colon) 1.85 µM | GI50 (OVCAR-4 ovarian) 2.56 µM | GI50 (UACC-62 melanoma) 1.7 µM | GI50 (NCI-H23 lung) 3.4 µM | GI50 (NCI/ADR-RES ovarian) 2.44 µM | GI50 (HL-60(TB) leukemia) 2.22 µM | GI50 (NCI-H226 lung) 3.41 µM | GI50 (IGROV1 ovarian) 2.27 µM | GI50 (M14 melanoma) 1.78 µM | GI50 (OVCAR-3 ovarian) 1.74 µM | GI50 (HOP-62 NSCLC) 2.35 µM | GI50 (SW-620 colon) 1.68 µM | GI50 (SK-MEL-5 melanoma) 1.7 µM | GI50 (HCT-116 colon) 1.36 µM | GI50 (SNB-19 CNS) 2.47 µM | GI50 (MDA-MB-435) 1.91 µM | GI50 (SNB-75 CNS) 2.16 µM | GI50 (SN12C renal) 1.79 µM | GI50 (CAKI-1 renal) 2.21 µM | GI50 (MCF7 breast) 1.76 µM | GI50 (T-47D breast) 2.11 µM | GI50 (DU-145 prostate) 3.78 µM | GI50 (KM12 colon) 2.16 µM | GI50 (CCRF-CEM leukemia) 2.07 µM | GI50 (HS 578T breast) 2.41 µM | GI50 (HOP-92 NSCLC) 1.68 µM | GI50 (RXF 393 renal) 1.84 µM | GI50 (MOLT-4 leukemia) 2.13 µM | GI50 (OVCAR-8 ovarian) 3.27 µM | GI50 (SF-295 CNS) 1.91 µM | GI50 (RPMI-8226 leukemia) 1.81 µM | GI50 (SF-268 CNS) 3.65 µM
2.87 µM: TGI (UO-31 renal)
3.84 µM: TGI (NCI-H522 lung)
6.07 µM: TGI (CCRF-CEM leukemia)
3.97 µM: TGI (MDA-MB-231 breast)
4.23 µM: TGI (NCI-H460 lung)
4.48 µM: TGI (SR leukemia)
16.6 µM: TGI (NCI-H226 lung)
8.22 µM: TGI (A498 renal)
11.2 µM: TGI (OVCAR-4 ovarian)
5.47 µM: TGI (MOLT-4 leukemia)
3.43 µM: TGI (COLO 205 colon)
6.87 µM: TGI (CAKI-1 renal)
5.43 µM: TGI (K-562 leukemia)
5.07 µM: TGI (HL-60(TB) leukemia)
4.02 µM: TGI (MALME-3M melanoma) | TGI (MCF7 breast)
3.42 µM: TGI (M14 melanoma)
3.88 µM: TGI (HCC-2998 colon) | TGI (MDA-MB-435)
13 µM: TGI (DU-145 prostate)
8.08 µM: TGI (HS 578T breast)
3.46 µM: TGI (LOX IMVI melanoma)
13.3 µM: TGI (SF-268 CNS)

O=C(Nc1ccc(Cl)cc1)c1cc2c(cc1Cl)SC(NNCCO)=NS2(=O)=O
> 100 µM: TGI (U251 CNS) | TGI (K-562 leukemia) | TGI (PC-3 prostate) | TGI (SK-MEL-2 melanoma) | TGI (BT-549 breast) | TGI (UACC-257 melanoma) | TGI (MDA-MB-231 breast) | TGI (LOX IMVI melanoma) | TGI (786-0 renal) | TGI (SK-OV-3 ovarian) | TGI (NCI-H460 lung) | TGI (UO-31 renal) | TGI (A498 renal) | TGI (SR leukemia) | TGI (TK-10 renal) | TGI (HCC-2998 colon) | TGI (HCT-15 colon) | TGI (ACHN renal) | TGI (COLO 205 colon) | TGI (HT29 colon) | TGI (OVCAR-4 ovarian) | TGI (UACC-62 melanoma) | TGI (NCI-H23 lung) | TGI (NCI/ADR-RES ovarian) | TGI (EKVX NSCLC) | TGI (HL-60(TB) leukemia) | TGI (NCI-H226 lung) | TGI (IGROV1 ovarian) | TGI (M14 melanoma) | TGI (HOP-62 NSCLC) | TGI (SW-620 colon) | TGI (SK-MEL-5 melanoma) | TGI (HCT-116 colon) | TGI (SNB-19 CNS) | TGI (MDA-MB-435) | TGI (SNB-75 CNS) | TGI (CAKI-1 renal) | TGI (SK-MEL-28 melanoma) | TGI (MCF7 breast) | TGI (SF-539 CNS) | TGI (T-47D breast) | TGI (DU-145 prostate) | TGI (KM12 colon) | TGI (CCRF-CEM leukemia) | TGI (HS 578T breast) | TGI (HOP-92 NSCLC) | TGI (RXF 393 renal) | TGI (MOLT-4 leukemia) | TGI (OVCAR-8 ovarian) | TGI (SF-295 CNS) | TGI (RPMI-8226 leukemia) | TGI (SF-268 CNS)

— PubChem BioAssay (NCI)
